Measured values published in patent US9902783B2, “Antibodies and pharmaceutical compositions containing same useful for inhibiting activity of metalloproteins” (Yeda Research and Development Co. Ltd., priority 2007, dated 2018).
Values belong to the molecule of their own block, whether it stands above or below them.

How the values were obtained:
metastasis = conditions: phase III, advanced cancer patients; cited from earlier work
[1] = patients; cited from earlier work
[2] = system: cell surface gelatinolytic activity of HT1080 cells; test: in situ zymography with DQ-gelatin; assay type: cell-based, human; conditions: 15 μM SB-3CT
Method: To localize net gelatinolytic activity of MMPs by in situ zymography, fluorescein isothiocyanate-labeled DQ gelatin that is intramolecularly quenched (Molecular Probes) was used as a substrate for degradation by gelatinases. Proteolysis by gelatinases yields cleaved fluorescein isothiocyanate-gelatin peptides and the localization of this fluorescence indicates the sites of net gelatinolytic activity. Briefly, Human fibrosarcoma HT1080 cells (which produce MMP-2, MMP-9 and MT1-MMP) were plated on 12-mm coverslips. […] Untreated cells served as negative control for this experiment. Cells were washed with PBS and then incubated with zymography reaction buffer (0.05 M Tris-HCl, 0.15 M NaCl, 5 mM CaCl2, and 0.2 mM NaN3, pH 7.6, the high concentration of azide prevented the gelatin from being phagocytosed and thus allowing cell surface gelatinolytic activity to occur) containing 60 ug/ml DQ gelatin at 37° C. overnight. […] At the end of the incubation period, without fixation or further washes, gelatinolytic activity of the MMPs was localized and photographed by fluorescence microscopy and images were acquired by Spot digital camera.
To confirm the inhibitory activity of anti CoTCPP mAb at cellular level, the effect of the antibody was examined on gelatinolytic activity of human fibrosarcoma HT1080 cells that constitutively secrete MMP-2 and 9 by in situ zymography. To localize gelatinolytic activity of MMPs by in situ zymography, fluorescein isothiocyanate-labeled gelatin that is intramolecularly quenched (DQ-gelatin) was used as substrate. Proteolysis by gelatinases yields cleaved fluorescein isothiocyanate-gelatin peptides and the localization of this fluorescence indicates the sites of net gelatinolytic activity.

MT1-MMP = MT1-MMP (Homo sapiens, UniProt P50281); conditions: cited from earlier work
[3] = peptide-based hydroxamate; cited from earlier work
[4] = competitive ELISA, affinity of mAbs toward their immunizing hapten; conditions: concentration of soluble hapten for 50% binding
Method: Supernatants of the growing hybridomas were screened for antibodies reactive with ZnTCPP, CoTCPP or Imisdp using direct ELISA in which respective hapten-BSA (3 μg/ml in PBS) was coated to Nunc maxisorp plates. The coating was performed at 4° C. overnight and incubation with antibodies at 20° C. for 1 h. HRP-conjugated anti-mouse mAb (Sigma) was used as the secondary antibody and 2,2′-azino-bis (3-ethylbenzthiazoline-6-sulphonic acid, ABTS, Sigma) was used as substrate. PBS containing 0.005% v/v Tween 20 (PBST) was used as washing reagent. The dilution buffer was PBS. A602 was recorded by microplate reader in […]luor Plus spectrometer (Tecan, Austria). As control supernatants were incubated with BSA coated plates in the same manner Absorbance values above 0.5 millioptical density were considered as positive.
Different dilutions of hybridoma supernatant were incubated with hapten-BSA coated plates following the steps described earlier. Titration curve was plotted and the titer dilution was determined at 50% of binding. Supernatants diluted to the titer concentration were preincubated with soluble ZnTCPP, CoTCPP or Imisdp compounds for 30 minutes and then transferred to hapten-coated microtiter plates following the steps described previously. The estimated dissociation constant was the concentration of soluble hapten required to attain 50% binding.

MMP-9 = test: kinetic assay with fluorogenic peptide substrate, MMP-9; assay type: biochemical, human
Chain of MMP-9 (P14780 107-444 limits assumed): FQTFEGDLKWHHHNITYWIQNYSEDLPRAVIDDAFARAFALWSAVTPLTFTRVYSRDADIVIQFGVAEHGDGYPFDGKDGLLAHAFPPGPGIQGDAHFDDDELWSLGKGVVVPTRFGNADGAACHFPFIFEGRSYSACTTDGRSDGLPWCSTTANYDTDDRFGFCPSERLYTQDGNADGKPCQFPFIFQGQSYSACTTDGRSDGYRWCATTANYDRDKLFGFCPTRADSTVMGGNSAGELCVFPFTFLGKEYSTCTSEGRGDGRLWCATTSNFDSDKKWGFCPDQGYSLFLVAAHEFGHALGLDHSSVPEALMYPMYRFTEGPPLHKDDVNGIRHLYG

MMP-2 = test: kinetic assay with fluorogenic peptide substrate, MMP-2; assay type: biochemical, human
TACE (ADAM-17) = TACE (ADAM-17) (Homo sapiens, UniProt P78536); test: kinetic assay with fluorogenic peptide QF-45, TACE; assay type: biochemical; conditions: Table 4
Chain of TACE (ADAM-17) (P78536 215-824, species assumed): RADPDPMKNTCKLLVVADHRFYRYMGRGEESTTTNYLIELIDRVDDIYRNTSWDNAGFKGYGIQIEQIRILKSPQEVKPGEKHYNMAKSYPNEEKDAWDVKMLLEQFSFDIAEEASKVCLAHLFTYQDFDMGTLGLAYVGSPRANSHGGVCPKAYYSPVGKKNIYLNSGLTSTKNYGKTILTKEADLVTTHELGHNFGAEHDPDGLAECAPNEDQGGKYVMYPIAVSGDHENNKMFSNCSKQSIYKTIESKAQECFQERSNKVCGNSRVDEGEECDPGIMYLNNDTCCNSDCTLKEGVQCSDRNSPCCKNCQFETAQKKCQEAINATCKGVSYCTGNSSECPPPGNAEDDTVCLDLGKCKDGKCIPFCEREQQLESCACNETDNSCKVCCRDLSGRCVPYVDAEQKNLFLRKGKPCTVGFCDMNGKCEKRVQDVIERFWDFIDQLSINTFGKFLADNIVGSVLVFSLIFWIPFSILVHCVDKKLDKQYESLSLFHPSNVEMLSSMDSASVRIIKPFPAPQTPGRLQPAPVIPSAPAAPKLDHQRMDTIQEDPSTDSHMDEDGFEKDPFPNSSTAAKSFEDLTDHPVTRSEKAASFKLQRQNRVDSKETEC

MT1-MMP (MMP-14) = MT1-MMP (MMP-14) (Homo sapiens, UniProt P50281); test: kinetic assay with fluorogenic peptide substrate, MT1-MMP; assay type: biochemical; conditions: Table 4

Molecule: O=C(C[C@H](CSc1ccccc1)C(=O)O)c1ccc(-c2ccc(Cl)cc2)cc1 [BAY12-9566]
clinical efficacy in inhibiting metastasis (metastasis): no clinical efficacy
severe side effects [1]: liver abnormalities, anemia, shoulder and back pain, thrombocytopenia, nausea, fatigue, diarrhea and deep vein thrombosis

Molecule: COc1ccc(S(=O)(=O)N(Cc2cccnc2)[C@@H](C(=O)NO)C(C)C)cc1 [CGS27023A]
severe side effects [1]: widespread maculopapular rash

Molecule: O=S(=O)(CC1CS1)c1ccc(Oc2ccccc2)cc1 (stereo not drawn) [SB-3CT, reference compound]
cell surface gelatinolytic activity [2]: inhibition observed
Ki (MT1-MMP): 0.11 µM

Molecule: CNC(=O)[C@H](Cc1ccccc1)NC(=O)[C@H](CC(C)C)[C@H](CSc1cccs1)C(=O)NO [batimastat]
metabolic stability and oral bioavailability [3]: low

Molecule: CNC(=O)[C@@H](NC(=O)[C@H](CC(C)C)[C@H](O)C(=O)NO)C(C)(C)C [marimastat]
clinical efficacy in inhibiting metastasis (metastasis): no clinical efficacy
severe side effects [1]: muscoloskeletal problems

Kd [4]: 0.01 µM
IC50 (MMP-9; Table 4): > 30 µM
IC50 (MMP-2; Table 4): > 30 µM
IC50 (TACE (ADAM-17)): > 30 µM
IC50 (MT1-MMP (MMP-14)): > 30 µM
B1: 15E12: monoclonal antibody, IgG2a, raised against the hapten ZnTCPP (antibody)
heavy: EGPGLVAPSQSLSITCTVSGISLSSYDISWIRQPPGKGLEWLGVMETWSGGGTENYNSAFMETSRLSISKDNSKRQVFLNMETNSVQIDDTATYYCIGRLHYYGYWFLDVWDQG
light: EMETTQTPLSLPVSLGDQASISCRSSQSIVQSNGNTYLDWYLQKPGQSPKLLIYKVSNERFSGVPDRFSGSGSGTDFTLKISRVEADDLGVYYCFQGSHVPYTFGGG
modifications: 15E12 mAb heavy chain; 15E12 mAb light chain
notes: monoclonal antibody, IgG2a, raised against the hapten ZnTCPP
inhibition of proteolytic activity of MMP-9 (MMP-9; continuous fluorometric assay): did not show inhibitory effect
inhibition of proteolytic activity of MMP-2 (MMP-2; continuous fluorometric assay): did not show inhibitory effect
